In patent US6821980B1, “Substituted 5-benzyl-2,4-diaminopyrimidines” (Basilea Pharmaceutica AG, priority 1999, dated 2004) one finds IC50 and MIC data, which are given here for three compounds.

In experiment [1] the target is T1, purified DHFR of strain Sp1/1 of Streptococcus pneumoniae (Streptococcus pneumoniae serotype 4, UniProt Q54801).
T1 sequence (Q54801 1-168 I100L): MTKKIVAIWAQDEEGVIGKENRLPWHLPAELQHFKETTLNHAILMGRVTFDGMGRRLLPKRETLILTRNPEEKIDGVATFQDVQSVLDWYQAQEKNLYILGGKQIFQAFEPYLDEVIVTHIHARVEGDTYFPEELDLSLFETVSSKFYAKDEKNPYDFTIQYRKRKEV
In kind it is biochemical. Conditions: Table 2; IC50 against purified DHFR of strain Sp1/1.

For experiment [2], the system named is Streptococcus pneumoniae 1/1. Put plainly: MIC against Streptococcus pneumoniae 1/1. It is filed as cell-based. The note with it: Table 2; Streptococcus pneumoniae 1/1, trimethoprim- and penicillin-resistant, serotype 6; clinical isolate; read-out: MIC Sp1/1.
For experiment [3], the system named is Staphylococcus aureus 101. In words: MIC against Staphylococcus aureus 101. It is filed as cell-based. Conditions: Table 2; Staphylococcus aureus 101, MRSA- and trimethoprim-resistant; clinical isolate; read-out: MIC Sa101.
Experiment [4] deals with purified DHFR of strain 157/4696 of Staphylococcus aureus (Staphylococcus aureus, UniProt P13955). In words: biochemical.

In brackets after ≈: the same amount, converted by molar mass.

Chain of purified DHFR of strain 157/4696 of Staphylococcus aureus (P13955 whole entry): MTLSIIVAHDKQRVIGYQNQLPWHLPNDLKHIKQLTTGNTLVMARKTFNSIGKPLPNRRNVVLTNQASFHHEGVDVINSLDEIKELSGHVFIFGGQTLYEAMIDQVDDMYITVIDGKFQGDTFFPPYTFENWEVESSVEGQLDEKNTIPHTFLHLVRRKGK

By IC50 is commonly meant the concentration needed to halve the response being measured. For the compound `CCOc1cc(Cc2cnc(N)nc2N)cc(OS(=O)(=O)N(C)C)c1-c1ccc(CN2CCOCC2)c(F)c1` [Example 64-b, Dimethylsulphamic acid 4-(2,4-diamino-pyrimidin-5-ylmethUl)-6-ethoxy-3′-fluoro-4′-morpholin-4-ylmethyl-biphenyl-2-yl ester], the figures for the IC50 in experiment [1] and in experiment [4] were 27 nM and 300 nM, respectively. For the same compound, the MIC in experiment [2] and in experiment [3] was 2 µg/mL (≈ 3.57 µM) in each case.
Regarding `CCOc1cc(Cc2cnc(N)nc2N)cc(OS(=O)(=O)N(C)C)c1-c1ccc(CN2CCOCC2)cc1` [Example 65-, Dimethylsulphamic acid 4-(2,4-diamino-pyrimidin-5-ylmethyl)-6-ethoxy-4′-morpholin-4-ylmethyl-biphenyl-2-yl ester], the figures for the half-inhibitory concentration (IC50) in experiment [1] and in experiment [4] were 24 nM and 160 nM, respectively. For the same compound, the MIC in experiment [2] and in experiment [3] was 2 µg/mL (≈ 3.69 µM) in each case.
With `CCOc1cc(Cc2cnc(N)nc2N)cc(OS(=O)(=O)N(C)C)c1-c1ccc(CN(C)CCF)cc1` [Example 66-, Dimethylsulphamic acid 4-(2,4-diamino-pyrimidin-5-ylmethyl)-6-ethoxy-4′-{[N-(2-fluoro-ethyl)-N-methyl-amino]-methyl}-binhenyl-2-yl ester], the values for the IC50 in experiment [1] and in experiment [4] were 52 nM and 170 nM, respectively. The MIC was determined as 4 µg/mL (≈ 7.51 µM) in experiment [2] and 2 µg/mL (≈ 3.75 µM) in experiment [3].
